Data taken from patent US11608483B2, “Inverted culture plate system for cellular co-culture” (University of Maryland, Baltimore, priority 2016, dated 2023).
Where two headings read alike, the source gives them in different places.

Assays:
[1] = tested on: CYP2B6 and CYP3A4 expression; experiment: CYP2B6 and CYP3A4 mRNA (real-time RT-PCR) and protein (western blot) induction in human primary hepatocytes
Experimental: (§1) The age and sex of each liver donor used are detailed in Table 1.
(§2) Total RNA was isolated from cells using TRIzol reagent (ThermoFisher, Rockford, Ill.) and reverse transcribed using a High Capacity cDNA archive kit (Applied
(§3) Biosystems, Foster, Calif.) according to the manufacturer's instructions. Real-time PCR assay was performed using SYBR Green PCR Mastermix (Qiagen, Germantown, Md.) on an ABI StepOnePlus real-timePCR system (Applied Biosystems). […] Expression values were quantified using the following equation: fold over control=2^ΔΔCt method, where ΔCt represents the differences in cycle threshold numbers between the target gene and glyceraldehyde-3-phosphate dehydrogenase, and ΔΔCt represents the relative change in these differences between control and treatment groups.
(§4) Subsequently, membranes were incubated with primary antibodies against CYP2B6 (1:200; Santa Cruz Biotechnology, Santa Cruz, Calif.), CYP3A4 (1:5000; Sigma-Aldrich), or β-actin (1:50,000, Sigma-Aldrich) at 4° C. overnight. Blots were developed with West Pico chemiluminescent substrates (ThermoFisher) after incubation with horse-radish peroxidase secondary antibodies.

[2] = target: T1, hCAR1+A (Homo sapiens, UniProt Q14994, INS274A); experiment: CAR1+A/CYP2B6-2.2k reporter assay in transfected HepG2 cells; type: cell-based; conditions: HepG2 cells without HPHs, 24 h
T1 construct: expressed in transfected cells; host or cells: HepG2
T1 sequence (Q14994 with tags, fused parts or gaps isoform Q14994-2 INS270A): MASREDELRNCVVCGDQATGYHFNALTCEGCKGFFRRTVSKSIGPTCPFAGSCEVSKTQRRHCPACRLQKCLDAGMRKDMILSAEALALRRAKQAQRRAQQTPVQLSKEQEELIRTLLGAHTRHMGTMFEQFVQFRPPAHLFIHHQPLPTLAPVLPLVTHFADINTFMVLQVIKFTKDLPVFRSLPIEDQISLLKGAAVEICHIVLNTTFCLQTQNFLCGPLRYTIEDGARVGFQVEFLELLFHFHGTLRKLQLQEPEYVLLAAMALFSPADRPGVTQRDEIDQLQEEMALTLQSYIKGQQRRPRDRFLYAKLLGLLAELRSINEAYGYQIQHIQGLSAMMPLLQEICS
T1 sequence (P19793 1-462 partner): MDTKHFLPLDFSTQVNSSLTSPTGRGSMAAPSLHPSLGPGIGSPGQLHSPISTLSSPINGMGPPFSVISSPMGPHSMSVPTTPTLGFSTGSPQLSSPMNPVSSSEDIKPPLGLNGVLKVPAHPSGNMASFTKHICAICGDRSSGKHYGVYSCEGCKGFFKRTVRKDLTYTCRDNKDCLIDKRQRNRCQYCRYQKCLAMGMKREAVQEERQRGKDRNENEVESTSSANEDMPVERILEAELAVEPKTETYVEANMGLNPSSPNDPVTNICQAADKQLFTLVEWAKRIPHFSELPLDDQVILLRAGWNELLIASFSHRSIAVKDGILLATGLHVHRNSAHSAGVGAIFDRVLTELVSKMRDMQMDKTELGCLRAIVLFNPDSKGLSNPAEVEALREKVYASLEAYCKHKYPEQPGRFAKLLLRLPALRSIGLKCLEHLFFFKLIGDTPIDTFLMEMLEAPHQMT

[3] = target: T2, hCAR (Homo sapiens, UniProt Q14994); experiment: CYP2B6 luciferase reporter assay in HepG2-CAR-2B6 stable cells without HPHs; type: cell-based; design: expressed in transfected cells; conditions: 24 h; for hCAR activity (CYP2B6 reporter luciferase activity): HepG2-CAR-2B6 cells without HPHs
T2 sequence (Q14994 1-348 isoform Q14994-2): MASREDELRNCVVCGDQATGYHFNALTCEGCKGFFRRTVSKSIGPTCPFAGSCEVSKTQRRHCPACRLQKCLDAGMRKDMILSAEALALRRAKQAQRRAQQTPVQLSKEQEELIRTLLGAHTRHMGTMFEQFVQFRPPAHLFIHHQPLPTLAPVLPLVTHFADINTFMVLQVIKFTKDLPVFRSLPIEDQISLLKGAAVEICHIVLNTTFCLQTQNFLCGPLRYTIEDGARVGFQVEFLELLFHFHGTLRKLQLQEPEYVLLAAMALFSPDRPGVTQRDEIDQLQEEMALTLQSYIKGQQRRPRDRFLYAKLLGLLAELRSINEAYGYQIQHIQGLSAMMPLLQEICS

[4] = target: T2, hCAR; experiment: Nuclear translocation of EYFP-hCAR in HPHs; type: cell-based; design: expressed in transfected cells; conditions: HPHs donor 123; 1 mM PB, 10 μM others; 8 hours
Experimental: After treatment, cells were fixed with 4% paraformaldehyde, stained with 1 μg/ml 4′,6-diamidino-2-phenylindole (Sigma-Aldrich) for 30 minutes, and EYFP-hCAR localization in hepatocytes was visualized on a Nikon Eclipse TI fluorescent microscope (Nikon, Melville, N.Y.). Quantitative distribution of EYFP-hCAR was analyzed using General Analysis in the Nikon Elements AR High Content Analysis software package (version 4.50.00). Nuclear localization was defined and quantified as the percentage of total enhanced yellow fluorescent protein that overlaps with 4′,6-diamidino-2-phenylindole.

[5] = tested on: human primary hepatocytes (HPHs); experiment: LC-MS/MS measurement of PK11195 metabolism in HPHs; type: in vitro ADME; conditions: for LC-MS/MS peak of metabolite in HPH culture medium: after 1 hour incubation of 10 μM PK11195 with HPHs, versus 0 hour
Experimental: Media (450 μl ) were collected from each well at 0 and 1 hours and frozen immediately at −80° C. Samples were thawed on ice before adding 50 μl of medium to 450 μl of ice-cold methanol/H2O (8:1, v/v). After centrifugation at 16,000g for 30 minutes, 200 μl of supernatant was transferred to a separate tube and dried down before resuspension in 200 μl H2O/ACN (1:1, v/v) with 0.1% formic acid. Authentic standards were prepared to 1 μM in H2O/ACN (1:1, v/v) with 0.1% formic acid. LC-MS/MS analysis was performed on a TSQ Quantum Ultra Triple Stage Quadrupole Mass Spectrometer coupled to an Ultimate 3000 RS Liquid Chromatogram System (Thermo Scientific, Waltham, Mass.). The LC separation was performed on a Waters (Milford, Mass.) BEH C18 column (2.1×50 mm, 1.7 μm) operated at 30° C. Solvents A and B consisted of 0.1% formic acid in H2O and 0.1% formic acid in ACN, respectively. The gradient program was 0.0-0.5 minutes, 50% B; 0.5-2.0 minutes, gradient to 95% B; 2.0-3.5 minutes, 95% B; 3.5-4.0 minutes, gradient to 50% B; and 4.0-5.0 minutes, 50% B. The flow rate was 0.5 ml/min and injection volume was 5 μl. Tandem mass spectrometry was performed in the positive-ion mode and the electrospray ionization source parameters were as follows: spray voltage, 3000; capillary temperature, 325; sheath gas pressure, 40; auxiliary gas pressure, 15; capillary offset, 35; and tube lens offset, 80. […] Data collection and analysis were performed using Xcalibur V 2.1 (Thermo Scientific).

[6] = tested on: HEK-293 cells; conditions: HPH/HEK-293 co-culture versus HEK-293 alone, 24 hrs
[7] = tested on: HEK-293 cells; conditions: HEK-293 cultured alone, concentration up to 1 mM, 24 hrs
[8] = Mordente A et al., 2009; cited from earlier work
[9] = target: T2, hCAR; conditions: 8 μM KET, PK11195 1 and 10 μM, HPH co-culture, 24 h
[10] = target: T3, hCAR/GRIP1 interaction (Homo sapiens, UniProt Q14994); experiment: Mammalian two-hybrid assay in COS1 cells, CAR/GRIP1; type: cell-based; conditions: 24 h
T3 construct: expressed in transfected cells; host or cells: COS1
T3 sequence (Q14994 1-348 isoform Q14994-2): T2 sequence (Q14994 1-348 isoform Q14994-2)
Experimental: (§5) COS1 cells seeded in 24-well plates were transfected with 110 ng of the reporter gene plasmid pG5luc, 80 ng of expression plasmids encoding the respective VP16AD/hCAR fusions, 40 ng of expression plasmids encoding GAL4-DBD/coregulatory fusions, and 20 ng of reference plasmid pRL-TK, each well using X-tremeGENE 9 DNA Transfection Reagent (Sigma-Aldrich). […] Luciferase activities were measured in cell lysates using the Dual Luciferase Kit (Promega). Data represent the mean±S.D. of three individual transfections.

[11] = tested on: CYP2B6 and CYP3A4 expression; experiment: CYP2B6 and CYP3A4 induction in PXR-KO HepaRG cells; conditions: differentiated PXR-KO HepaRG cells; 10 μM; 24 h mRNA, 72 h protein
Experimental: as §1, §2, §3, §4

[12] = target: T4, hCAR/SRC-1 interaction (Homo sapiens, UniProt Q14994); experiment: Mammalian two-hybrid assay in COS1 cells, CAR/SRC-1; type: cell-based; conditions: 24 h
T4 construct: expressed in transfected cells; host or cells: COS1
T4 sequence (Q14994 1-348 isoform Q14994-2): T2 sequence (Q14994 1-348 isoform Q14994-2)
Experimental: as §5

[13] = tested on: CYP2B6 and CYP3A4 expression; experiment: CYP2B6 and CYP3A4 induction in wild-type HepaRG cells; type: cell-based; conditions: differentiated wild-type HepaRG cells; 10 μM PK11195; 24 h mRNA, 72 h protein
Experimental: as §1, §2, §3, §4

## Clc1ccc(-c2nc3sccn3c2C=NOCc2ccc(Cl)c(Cl)c2)cc1 [CITCO, 6-(4-Chlorophenyl)imidazo[2,1-b][1,3]thiazole-5-carbaldehyde-O-(3,4-dichlorobenzyl)oxime]
[1]; HPHs from liver donors 107 and 122, 1 mM PB, 1 μM CITCO, 10 μM RIF, 10 μM PK11195, 24 h mRNA, 72 h protein
  induction of CYP2B6 and CYP3A4 at mRNA and protein levels: robustly induced

## O=C(O)c1cc2ccccc2c(-c2ccccc2Cl)n1 [COOH-PK, 1-(2-Chlorophenyl)isoquinoline-3-carboxylic acid]
[2]
  hCAR activation in the CAR1+A/CYP2B6-2.2k reporter assay: negligible CAR activation
[3]
  hCAR activity (CYP2B6 reporter luciferase activity): no effect on CAR activity
[4]
  nuclear translocation of hCAR (EYFP-hCAR): negligible CAR nuclear accumulation
[5]
  LC-MS/MS peak of metabolite in HPH culture medium: significantly increased in intensity
[1]; HPHs from liver donors 120 and 121, 0.1, 1 and 10 μM, 24 h mRNA, 72 h protein
  induction of CYP2B6 and CYP3A4 at mRNA and protein levels: negligible effects

## O=P1(N(CCCl)CCCl)NCCCO1 (stereo not shown) [CPA, cyclophosphamide]
[6]
  metabolism-dependent cytotoxicity: showed metabolism-dependence in the co-culture only
[7]
  cytotoxicity: no cytotoxicity

## COc1cccc2c1C(=O)c1c(O)c3c(c(O)c1C2=O)C[C@@](O)(C(=O)CO)C[C@@H]3O[C@H]1C[C@H](N)[C@H](O)[C@H](C)O1 [DOX, doxorubicin]
[8]
  fraction eliminated from the body unchanged: over 50%

## CC(=O)N1CCN(c2ccc(OCC3COC(Cn4ccnc4)(c4ccc(Cl)cc4Cl)O3)cc2)CC1 (stereo not shown) [KET, ketoconazole]
[9]
  effect of KET co-treatment on conversion of PK11195 from CAR antagonist to CAR activator: significantly inhibited the conversion of PK11195
[3]; 8 μM KET, HepG2-CAR-2B6 cells alone
  effect of KET co-treatment on repression of CAR activity by PK11195: not influenced

## CC[C@@H](C)NC(=O)c1cc2ccccc2c(-c2ccccc2Cl)n1 [ND-PK, (R)-N-Desmethyl PK11195]
[2]
  hCAR activation in the CAR1+A/CYP2B6-2.2k reporter assay: robustly activates hCAR to a level similar to the positive control
[3]
  hCAR activity (CYP2B6 reporter luciferase activity): activated hCAR in a concentration-dependent manner
[4]
  nuclear translocation of hCAR (EYFP-hCAR): robustly increased nuclear translocation
[10]; 10 μM, COS1 cells
  interaction between hCAR and GRIP1: moderately enhanced
[10]; ND-PK + PK11195 co-treatment
  effect on PK11195-repressed binding of GRIP1 to hCAR: only minimally affecting
[11]
  induction of CYP2B6 and CYP3A4 mRNA and protein: significantly induced
[5]
  LC-MS/MS peak of metabolite in HPH culture medium: significantly increased in intensity
[12]; 10 μM, COS1 cells
  interaction between hCAR and SRC-1: moderately enhanced
[12]; ND-PK + PK11195 co-treatment
  effect on PK11195 mediated repression of SRC-1/CAR interaction: markedly rescued

## CCC1(c2ccccc2)C(=O)NC(=O)NC1=O [PB, Phenobarbital]
[1]; hepatocytes
  induction of CYP2B6 and CYP3A4 at mRNA and protein levels: robustly induced

## CCC(C)N(C)C(=O)c1cc2ccccc2c(-c2ccccc2Cl)n1 (stereo not shown) [PK11195, 1-(2-chlorophenyl)-N-methyl-N-(1-methylpropyl)-3-isoquinolinecarboxamide]
[11]
  induction of CYP2B6 and CYP3A4 mRNA and protein: significantly induced
[5]; 10 μM PK11195, media at 0 and 1 hour
  metabolism of PK11195 by HPHs: metabolized by HPHs to COOH-PK and ND-PK
[1]
  induction of CYP2B6 and CYP3A4 at mRNA and protein levels: robustly induced
[13]
  induction of CYP2B6 and CYP3A4 mRNA and protein: induced the expression of CYP2B6 and CYP3A4 mRNA and protein
